{"source": "patent US20090023780A1", "about": "(priority 2000, published 2009)", "test_system": "Sprague-Dawley rats", "experiment": "Phase 1: specific effects of gacyclidine on the nociceptive threshold in rats (modified Randall-Selitto test)", "format": "in vivo, rat", "settings": "for analgesic effect per se: 0.1 mg/kg", "protocol": "All the experiments are carried out on Sprague-Dawley rats weighing 350-400 g; each experimental phase is carried out according to a similar plan: each experimental phase is carried out on 6 groups of 12 rats including one group of control animals. The test adopted to measure the nociceptive threshold is the Randall-Selitto Test modified according to Kayser et al. (1990) (Kayser V., Basbaum A. I. and Guilbaud G.,\nDeafferentation in the rat increase mechanical nociceptive threshold in the innervated limbs; Brain research ([…]), 508, 329-332), using a mechanical stimulus of increasing intensity (expressed in grams), the retained evoked response being the cry of the animal.\nThe general plan for an experimental phase is as follows: • arrival and housing of the animals: 4 days; • preparation of the animals allowing them to become familiar with the investigator and the experimental conditions and measurements in order to avoid any possibility of measurement bias being induced by stress: 14 days; • preparation and insertion of the catheters: 9 days; • post-operative rest (with antibiotic treatment) and determination of the stability of the experimental measurements (basic nociceptive threshold): 4 days; • testing of response to the different active ingredients: 9 days.\nThe 3 doses of gacyclidine retained: 0.1, 0.3 and 1 mg/kg, are injected by venous route using the catheter introduced into a jugular vein.\nAll the results are analyzed according to an ANOVA test.\nPhase 1: study of the specific effects of gacyclidine on the nociceptive threshold in rats.\n3 series of experiments each including 2 groups of animals of 12 rats are set up. • 1st series of experiments: • 1st group: the animals receive an injection of physiological saline solution. • 2nd group: the animals receive a dose of 0.1 mg/kg of gacyclidine.\n2nd series of experiments: • 1st group: the animals receive an injection of physiological saline solution. • 2nd group: the animals receive a dose of 0.3 mg/kg of gacyclidine.\n3rd series of experiments: • 1st group: the animals receive an injection of physiological saline solution. • 2nd group: the animals receive a dose of 1 mg/kg of gacyclidine.\nAll the animals in the 3 series of experiments are prepared during the same phase. The day of administration of the gacyclidine (or of the physiological saline solution) for each series is deferred by only 3 days in order to follow the evolution of the nociceptive threshold for several days following the administration of the pharmaceutical substances. The measurement of the nociceptive threshold is carried out over at least 4 hours after the injection of gacyclidine, at the rate of one measurement every 30 minutes then daily for at least one week.", "key": {"[1]": {"settings": "gacyclidine alone, 0.1 mg/kg i.v."}}, "data": [{"substance": "1-[cis-2-methyl-1-(2-thienyl)cyclohexyl]piperidine [gacyclidine]", "values": [{"measurement": "psychomotor effect", "setting": "doses of 0.1 and 0.3 mg/kg", "value": "does not have any psychomotor effect"}, {"measurement": "motor effect per se", "setting": "[1]", "value": "neither analgesic effect nor motor effect"}, {"measurement": "analgesic effect per se", "setting": "[1]", "value": "neither analgesic effect nor motor effect"}, {"measurement": "analgesic effect per se", "setting": "gacyclidine alone, 0.1 mg/kg i.v., listed as thienylcyclohexylamine", "value": "does not per se cause any analgesic effect"}, {"measurement": "duration of analgesic effect (nociceptive threshold)", "setting": "gacyclidine alone, 0.3 mg/kg i.v.", "value": 30, "unit": "min"}, {"measurement": "duration of analgesic effect (nociceptive threshold)", "setting": "gacyclidine alone, 1 mg/kg i.v.", "value": "first hour"}, {"measurement": "motor effects", "setting": "gacyclidine alone, 1 mg/kg i.v. (strongest dose used)", "value": "induces motor effects"}]}]}
